From patent publication US20140315786A1, “USE OF INTRACELLULAR ENZYMES FOR THE RELEASE OF COVALENTLY LINKED BIOACTIVES” (Catabasis Pharmaceuticals, Inc., priority 2011, published 2014)

What was measured:
[1] = biological target: T1, human recombinant MAG-lipase (Homo sapiens, UniProt Q99685); test: Hydrolysis with human recombinant monoacylglycerol lipase, with and without MAGL inhibitor; format: biochemical; details: FIG. 8
T1 construct: purchased Cayman 705192
T1 sequence (Q99685 1-303): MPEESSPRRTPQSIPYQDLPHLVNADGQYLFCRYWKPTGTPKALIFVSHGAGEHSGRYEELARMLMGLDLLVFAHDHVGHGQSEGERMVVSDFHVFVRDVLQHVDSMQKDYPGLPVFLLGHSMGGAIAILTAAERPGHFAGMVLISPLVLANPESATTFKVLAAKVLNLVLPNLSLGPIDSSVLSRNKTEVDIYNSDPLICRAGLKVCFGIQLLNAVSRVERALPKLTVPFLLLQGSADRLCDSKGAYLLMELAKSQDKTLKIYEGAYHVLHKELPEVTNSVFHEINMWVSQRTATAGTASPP
Experimental: Hydrolysis experiment involving Monoacylglycerol lipase (MAGL) with and without a MAGL inhibitor. A commercially available Monoacylglycerol (MAGL) kit from Cayman (Cat #705192) was used for the hydrolysis experiment. The hydrolysis was carried out in Eppendorf tubes by adding together 300 μL of a 10 mM Tris-HCl buffer (pH 7.2, 1 mM EDTA), 20 μL of DMSO, and 20 μL of the human recombinant MAG-lipase. […] The Eppendorf tubes were gently inverted to mix the components and then placed in a 37° C. incubator. A 25 μl, sample was withdrawn at each of the following time points: 0, 5, 10, 15, and 30 min. […] In a separate experiment, the hydrolysis was then repeated in the presence of a MAGL inhibitor (compound JZL184, supplied with the commercially available MAGL kit). Eppendorf tubes were charged with 300 μL of a 10 mM Tris-HCl buffer (pH 7.2, 1 mM EDTA), 20 μL of a […] solution of JZL184 in DMSO in order to make a 5 μM final concentration, and 20 μL of the human recombinant MAG-lipase. […] The Eppendorf tubes were gently inverted to mix the components and then placed in a 37° C. incubator.

[2] = tested on: NFκB; test: NFκB-driven luciferase reporter assay in LPS-challenged RAW 264.7 macrophages; format: cell-based; details: Mus musculus, RAW264.7; RAW 264.7, LPS 200 ng/mL; linked bioactive; read-out: IC50 in an NFkB assay
Experimental: RAW 264.7 cells transfected with an NFκB-driven luciferase reporter were plated in 96 well plates. Cells were treated with Vehicle (0.1% ethanol) or test compounds for 2 hours. As a positive control for inhibition of NFκB signaling, 6 wells were treated with […]. Cells were then challenged with 200 ng/mL LPS for 3 hours in the presence of test compounds. A subset of wells treated with vehicle remained unstimulated with LPS to determine the floor signal of the assay. NFκB driven luciferase activity was developed by addition of BriteLite luciferase kit (PERKIN ELMER®) and measured using a Victor V plate reader. NFκB activity (luciferase activity) for each treatment was normalized to Vehicle wells treated with LPS (% NFκB Response).

[3] = Sprague Dawley rat brain homogenate promoted cleavage of a linked bioactive, with and without FAAH inhibitor URB597; format: in vitro ADME; details: FIG. 1; 5 μM inhibitor
Experimental: The purpose of this assay was to measure the ability of Sprague Dawley rat brain homogenate to hydrolyze a linked bioactive in the presence of fatty acid amide hydrolase inhibitor URB597 (obtained from Cayman Chemical, cat #10046. Brains were harvested from male Sprague Dawley rats and were homogenized 1:4 (grams:mL) in 20 mM 4-(2-hydroxyethyl)-1-piperazineethanesulfonic acid, pH 7.0. Total protein in the rat brain homogenate was determined by a Bradford protein assay.
Linked bioactive was dissolved in methanol at 50 mM. Hydrolysis reactions were conducted with 500 μM of compound in a reaction buffer of 50 mM Hcpcs, 1 mM EDTA, 0.1% Triton X100, pH 8.0, and 1 mg/mL total protein from rat brain homogenate. Reactions were incubated at 37° C. The total reaction volume was 500 μL. Reactions were quenched by transferring 30 μL of reaction into 200 μL of acetonitrile containing 100 ng/mL of internal standard compound, after 0 hours, 1 hour, 2 hours, and 3 hours. […]
Generally, levels of parent linked bioactive and hydrolysis products were measured using an Agilent 1260 HPLC and an Agilent 6410 triple quadrapole mass spectrometer with an electrospray source and using multiple reaction monitoring and relevant mass/charge transitions. […] Injection volumes and flow rates were determined for each specific parent linked bioactive and relative hydrolysis products. […]

[4] = biological target: T2, FAAH-2 (Homo sapiens, UniProt Q6GMR7); test: Hydrolysis in homogenate of COS-7 cells overexpressed with FAAH-2; format: biochemical; details: 5 μM inhibitor
T2 construct: expressed in transfected cells; host or cells: COS-7
T2 sequence (Q6GMR7 1-532): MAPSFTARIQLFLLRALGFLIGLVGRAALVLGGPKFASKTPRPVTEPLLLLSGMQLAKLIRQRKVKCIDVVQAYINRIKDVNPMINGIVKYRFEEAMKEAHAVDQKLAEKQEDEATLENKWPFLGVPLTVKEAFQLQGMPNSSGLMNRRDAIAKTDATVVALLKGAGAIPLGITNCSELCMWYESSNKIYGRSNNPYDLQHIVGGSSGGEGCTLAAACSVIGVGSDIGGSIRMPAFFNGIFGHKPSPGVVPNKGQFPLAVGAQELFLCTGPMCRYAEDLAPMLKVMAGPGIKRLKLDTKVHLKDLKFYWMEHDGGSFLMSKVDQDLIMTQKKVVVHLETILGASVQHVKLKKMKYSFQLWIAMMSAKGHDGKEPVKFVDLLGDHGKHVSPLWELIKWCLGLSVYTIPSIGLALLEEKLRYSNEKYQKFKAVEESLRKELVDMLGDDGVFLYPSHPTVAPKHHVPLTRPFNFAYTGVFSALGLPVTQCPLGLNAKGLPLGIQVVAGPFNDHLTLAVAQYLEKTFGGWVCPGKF
Experimental: (§1) Hydrolysis experiments using COS-7 cells overexpressed with either FAAH-1 or FAAH-2. […] The next day, cells were transfected, in duplicate, with 10 μg Vector control, flag-FAAH-1 or flag-FAAH-2 plasmids using Lipofectamine 2000 (Invitrogen) according to the manufacturer's protocol. 24 hours post transfection, cells were washed 1× in cold PBS, aspirated dry, and then scraped off the plate in the presence of 0.6 mL reaction buffer (50 mM HEPES, pH 9.0; 1 mM EDTA). Cells were then homogenated using a VWR VDI 12 Adaptable Homogenizer, on ice for 1 minute, and the sample was then clarified by centrifugation at 6,000 g for 5 minutes. The supernatant of this homogenated fraction was then used for FAAH hydrolysis assays. […] Gel densitometry was performed and the % FAAH extracted in each successive lysis conditions was determined according to standard procedures.
(§2) The following hydrolysis experiments were performed using COS-7 cells containing overexpressed FAAH-1 or FAAH-2. […] Briefly, the hydrolysis experiments were carried out in Eppendorf tubes using procedures similar to the one described above. […] At time=0, 1, and 3 h, the protein was precipitated with acetonitrile.

[5] = biological target: T3, FAAH-1 (Homo sapiens, UniProt O00519); test: Hydrolysis in homogenate of COS-7 cells overexpressed with FAAH-1; format: biochemical; details: 5 μM inhibitor
T3 construct: expressed in transfected cells; host or cells: COS-7
T3 sequence (O00519 1-579): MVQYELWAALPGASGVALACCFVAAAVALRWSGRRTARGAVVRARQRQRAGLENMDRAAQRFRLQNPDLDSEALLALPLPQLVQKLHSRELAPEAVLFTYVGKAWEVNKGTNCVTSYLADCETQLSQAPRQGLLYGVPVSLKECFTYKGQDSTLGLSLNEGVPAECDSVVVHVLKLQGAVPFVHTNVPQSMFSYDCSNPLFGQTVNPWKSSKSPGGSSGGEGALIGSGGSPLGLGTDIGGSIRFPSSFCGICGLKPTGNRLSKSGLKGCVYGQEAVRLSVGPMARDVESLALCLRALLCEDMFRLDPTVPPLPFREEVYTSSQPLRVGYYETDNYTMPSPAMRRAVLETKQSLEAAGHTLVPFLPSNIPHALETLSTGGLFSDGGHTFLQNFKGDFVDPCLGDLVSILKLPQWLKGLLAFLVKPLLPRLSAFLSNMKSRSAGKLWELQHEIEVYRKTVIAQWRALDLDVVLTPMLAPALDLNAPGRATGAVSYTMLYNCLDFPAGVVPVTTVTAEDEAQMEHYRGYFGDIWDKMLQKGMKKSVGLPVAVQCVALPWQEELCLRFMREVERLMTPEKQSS
Experimental: as §1, §2

[6] = tested on: LTB4; test: LTB4 assay (HTRF) in differentiated HL-60 cells stimulated with A23187; format: cell-based; details: Homo sapiens, linked bioactive
Experimental: The LTB4 assay was conducted using a commercial kit (CISBIO, Bedford, Mass.) in HL-60 cells. HL-60 cells were maintained in IMEM supplemented with 20% serum in 37° C. in 5% CO2. Media was changed 2 times a week and cells kept at a density of 2×10^5 to 1×10^6 cells/ml.
Before the experiment cell culture media was changed to 10% serum and HL-60 cells were differentiated for 3 days in 1.3% DMSO. On day 3 cells were concentrated 2 times in the DMSO containing media and 1 ml cell suspension/well plated in 24-well plates. BSA controls or CAT compounds prepared in 1% BSA from an ethanol or DMSO stock solution were added to the wells and the cell were incubated for 21 hours. Next day, cells were transferred to Eppendorf tubes centrifuged at 300×g and rinsed once in DPBS. Cells were re-suspended in 300 μl DPBS containing 2% FBS (assay buffer), and 80 μl/well was plated in 96-well plates (black sides, clear bottom). Some cells were pre-incubated with 10 μM NDGA, a LOX inhibitor. To initiated LTB4 secretion, cells were stimulated with the calcium ionophore A23187 (5 μM) for 15 min. […] LTB4 content in the supernatant was assessed by a homogeneous time resolved fluorescence (HTRF) LTB4 assay from CISBIO, in a 384-well plate format. […] Cell viability was determined in the 96-well plate by CellTiter-Glo (Promega, Madison, Wis.).

SMILES: CC/C=C\C/C=C\C/C=C\C/C=C\C/C=C\C/C=C\CCC(=O)Nc1ccc(O)c(C(=O)O)c1 [II-1, 5-(4Z,7Z,10Z,13Z,16Z,19Z)-docosa-4,7,10,13,16,19-hexaenamido-2-hydroxybenzoic acid]
- hydrolysis using human recombinant MAG-lipase (remaining compound) ([1]; 5 μM final concentration, 37° C., 0-30 min, no inhibitor): time-dependent hydrolysis
- IC50 [2]: 40000 to 50000 nM

SMILES: O=C(Oc1ccc([N+](=O)[O-])cc1)N1CCC(C(O)(c2ccc3c(c2)OCO3)c2ccc3c(c2)OCO3)CC1 [JZL184, reference compound]
- effect of MAGL inhibitor on rate of hydrolysis of compound II-1 ([1]; 5 μM inhibitor): reduced significantly

SMILES: NC(=O)c1cccc(-c2cccc(OC(=O)NC3CCCCC3)c2)c1 [URB597]
- effect of FAAH inhibitor on hydrolysis of the linked bioactive by rat brain homogenate [3]: essentially eliminated
- effect of inhibitor on hydrolysis of compound I-1, FAAH-2 ([4]; FIG. 9B): significantly reduced
- effect of inhibitor on formation of DHA from compound I-1, FAAH-2 ([4]; FIG. 9D): more effective in reducing the formation of DHA
- effect of inhibitor on rate of hydrolysis of compound I-1, FAAH-1 ([5]; FIG. 9A): significantly reduced
- effect of inhibitor on rate of formation of DHA from compound I-1, FAAH-1 ([5]; FIG. 9C): significantly inhibited

SMILES: CC/C=C\C/C=C\C/C=C\C/C=C\C/C=C\C/C=C\CCC(=O)NCCNC(=O)C(C)c1ccc(CC(C)C)cc1 (stereo not shown) [VIIa-1, (4Z,7Z,10Z,13Z,16Z,19Z)-N-(2-(2-(4-isobutylphenyl)propanamido)ethyl)docosa-4,7,10,13,16,19-hexaenamide]
- IC50 [6]: 2200 nM

SMILES: CC/C=C\C/C=C\C/C=C\C/C=C\C/C=C\C/C=C\CCC(=O)N[C@@H](CCCCNC(=O)C(C)c1ccc(CC(C)C)cc1)C(=O)O (stereo partly drawn) [VIIa-2, (2S)-2-((4Z,7Z,10Z,13Z,16Z,19Z)-docosa-4,7,10,13,16,19-hexaenamido)-6-(2-(4-isobutylphenyl)propanamido)hexanoic acid]
- IC50 [6]: 1600 nM
